Measurements as given in patent publication US8349880B2, “Bicyclic compounds for the reduction of beta-amyloid production” (Bristol-Myers Squibb Company, priority 2009, dated 2013).

Tested on: Aβ1-42 production
Assay: Cellular assay for inhibition of Aβ1-42 production (H4 APP751 SWE clone 8.20)
Type: cell-based
Conditions: 19 h, H4 APP751 SWE clone 8.20 cells, 19 h incubation; read-out: Activity Rating (Aβ42 cellular IC50, given as a number)
Summary of the method: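 H4 cells stably expressing APP751 with the Swedish mutation (1.5×10^4 cells/well) incubated with compound for 19 h at 37° C in DMEM with 0.0125% BSA. Secreted Aβ42 measured overnight at 4° C by HTRF-type pairing of 565 (Aβ42 neoepitope) and 26D6 (N-terminal) antibodies. IC50 from curve fit.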

| IC50 [nM] | Molecule |
| --- | --- |
| 122 | Cc1ncnn1-c1ccc(Nc2nc3n(n2)CC[C@H](O)C[C@@H]3c2ccc(F)cc2)cc1F (relative stereo) [Example 156, rel-(7R,9R)-2-(3-fluoro-4-(5-methyl-1H-1,2,4-triazol-1-yl)phenylamino)-9-(4-fluorophenyl)-6,7,8,9-tetrahydro-5H-[1,2,4]triazolo[1,5-a]azepin-7-ol 2,2,2-trifluoroacetate] |
| 5 | COc1cc(Nc2nc3n(n2)CCCC[C@H]3c2ccc(OCC(F)(F)F)cc2)ccc1-n1cnc(Cl)c1 (single isomer, unassigned) [Example 106] |
| 107 | COc1cc(Nc2nc3n(n2)CCCC[C@@H]3c2ccc(OCC(F)(F)F)cc2)c(F)cc1-n1cnc(C)n1 (single isomer, unassigned) [Example 118] |
| 12 | COc1cc(Nc2cc3n(n2)C(c2ccc(F)cc2)CCC3)ccc1-n1cnc(Cl)c1 (centres unmarked) [Example 90, N-(4-(4-chloro-1H-imidazol-1-yl)-3-methoxyphenyl)-7-(4-fluorophenyl)-4,5,6,7-tetrahydropyrazolo[1,5-a]pyridin-2-amine] |
| 2 | COc1cc(Nc2nc3n(n2)CC[C@](C)(O)C[C@@H]3c2ccc(F)cc2)ccc1-n1cnc(Cl)c1 (single isomer, unassigned) [Example 149, 2,2,2-trifluoroacetate] |

Same assay, conditions: 19 h, H4 APP751 SWE clone 8.20 cells, 19 h incubation; read-out: Activity Rating (based on Aβ42 cellular IC50 values)

| IC50 [nM] | Molecule |
| --- | --- |
| < 10 | COc1cc(Nc2nc3n(n2)C[C@H](O)CC[C@@H]3c2ccc(F)cc2)ccc1-n1cnc(Cl)c1 (relative stereo) [Example 65, rel-(6R,9R)-2-(4-(4-chloro-1H-imidazol-1-yl)-3-methoxyphenylamino)-9-(4-fluorophenyl)-6,7,8,9-tetrahydro-5H-[1,2,4]triazolo[1,5-a]azepin-6-ol 2,2,2-trifluoroacetate] |
| 10 to 100 | C=C1CCn2nc(Nc3ccc(-n4cnc(Cl)c4)c(OC)c3)nc2[C@@H](c2ccc(F)cc2)C1 (single isomer, unassigned) [Example 135] |
| < 10 | Cc1ncn(-c2ccc(Nc3nc4n(n3)CCCC[C@@H]4c3ccc(OC(F)(F)F)c(F)c3)cc2F)n1 (single isomer, unassigned) [Example 166] |
| 10 to 100 | Cc1ncnn1-c1ccc(Nc2nc3n(n2)CCCC[C@@H]3c2ccc(OCC(F)(F)F)cc2)cc1F (single isomer, unassigned) [Example 112] |
| 10 to 100 | Cc1ncn(-c2ccc(Nc3nc4n(n3)CCCC[C@@H]4c3ccc(F)cc3)cc2F)n1 (single isomer, unassigned) [Example 27] |
| 10 to 100 | Cc1ncnn1-c1ccc(Nc2nc3n(n2)CCCCC3c2ccc(OC(F)(F)F)cc2)cc1F (centres unmarked) [Example 99, N-(3-fluoro-4-(5-methyl-1H-1,2,4-triazol-1-yl)phenyl)-9-(4-(trifluoromethoxy)phenyl)-6,7,8,9-tetrahydro-5H-[1,2,4]triazolo[1,5-a]azepin-2-amine] |
| 10 to 100 | Cc1ncnn1-c1ccc(Nc2nc3n(n2)CCCCC3c2ccc(F)cc2)cc1F (centres unmarked) [Example 93, N-(3-fluoro-4-(5-methyl-1H-1,2,4-triazol-1-yl)phenyl)-9-(4-fluorophenyl)-6,7,8,9-tetrahydro-5H-[1,2,4]triazolo[1,5-a]azepin-2-amine] |
| 10 to 100 | COc1cc(Nc2nc3n(n2)CCCCC3c2ccc(OC(F)F)cc2)ccc1-n1cnc(C)n1 (centres unmarked) [Example 127, 9-(4-(difluoromethoxy)phenyl)-N-(3-methoxy-4-(3-methyl-1H-1,2,4-triazol-1-yl)phenyl)-6,7,8,9-tetrahydro-5H-[1,2,4]triazolo[1,5-a]azepin-2-amine 2,2,2-trifluoroacetate] |
| 10 to 100 | Cc1ncnn1-c1ccc(Nc2nc3n(n2)CCCC[C@H]3c2ccc(F)cc2)cc1F (single isomer, unassigned) [Example 94] |
| 10 to 100 | COc1cc(Nc2nc3n(n2)CCCC[C@@H]3c2cc(F)cc(F)c2)ccc1-n1cnc(Cl)c1 (single isomer, unassigned) [Example 40] |
| < 10 | COc1cc(Nc2nc3n(n2)CC[C@@](C)(O)C[C@@H]3c2ccc(OC(F)(F)F)cc2)ccc1-n1cnc(Cl)c1 (relative stereo) [Example 153, rel-(7S,9R)-2-(4-(4-chloro-1H-imidazol-1-yl)-3-methoxyphenylamino)-7-methyl-9-(4-(trifluoromethoxy)phenyl)-6,7,8,9-tetrahydro-5H-[1,2,4]triazolo[1,5-a]azepin-7-ol 2,2,2-trifluoroacetate] |
| < 10 | COc1cc(Nc2nc3n(n2)CCCC[C@H]3c2ccc(F)cc2F)ccc1-n1cnc(Cl)c1 (single isomer, unassigned) [Example 36] |
| < 10 | COc1cc(Nc2nc3c(s2)CC(O)CC3c2ccc(F)cc2)ccc1-n1cnc(Cl)c1 (centres unmarked) [Example 76, 2-(4-(4-chloro-1H-imidazol-1-yl)-3-methoxyphenylamino)-4-(4-fluorophenyl)-4,5,6,7-tetrahydrobenzo[d]thiazol-6-ol] |
| < 10 | Cc1ncnn1-c1ccc(Nc2nc3n(n2)CCCC[C@H]3c2ccc(OC(F)(F)F)cc2)cc1F (single isomer, unassigned) [Example 100] |
| 100 to 1000 | COc1cc(Nc2nc3n(n2)CCCCC3c2ccc(F)cc2)ccc1-c1nc(C)no1 (centres unmarked) [Example 60, 9-(4-fluorophenyl)-N-(3-methoxy-4-(3-methyl-1,2,4-oxadiazol-5-yl)phenyl)-6,7,8,9-tetrahydro-5H-[1,2,4]triazolo[1,5-a]azepin-2-amine] |
| 100 to 1000 | COc1cc(Nc2nc3c(s2)CCCC3(NCc2ccc(Cl)cc2)c2ccccc2)ccc1-n1cnc(Cl)c1 (centres unmarked) [Example 83, N2-(4-(4-chloro-1H-imidazol-1-yl)-3-methoxyphenyl)-N4-(4-chlorobenzyl)-4-phenyl-4,5,6,7-tetrahydrobenzo[d]thiazole-2,4-diamine] |
| < 10 | COc1cc(Nc2nc3n(n2)CCCCC3c2ccccc2)ccc1-n1cnc(Cl)c1 (centres unmarked) [Example 159, 2,2,2-trifluoroacetate] |
| < 10 | COc1cc(Nc2nc3n(n2)CCCC[C@H]3c2ccc(F)cc2)ccc1-n1cnc(Cl)c1 (single isomer, unassigned) [Example 17] |
| 10 to 100 | Cc1ncn(-c2ccc(Nc3nc4n(n3)CCCC[C@@H]4c3ccc(OCC(F)(F)F)cc3)cc2F)n1 (single isomer, unassigned) [Example 115] |
| 10 to 100 | COc1cc(Nc2nc3n(n2)CCCCC3c2ccc(F)cc2)ccc1-n1cnc(C(F)F)c1 (centres unmarked) [Example 43, N-(4-(4-(difluoromethyl)-1H-imidazol-1-yl)-3-methoxyphenyl)-9-(4-fluorophenyl)-6,7,8,9-tetrahydro-5H-[1,2,4]triazolo[1,5-a]azepin-2-amine 2,2,2-trifluoroacetate] |
| 10 to 100 | CCOc1ccc(C2CCCCn3nc(Nc4ccc(-n5cnc(Cl)c5)c(OC)c4)nc32)cc1 (centres unmarked) [Example 131, N-(4-(4-chloro-1H-imidazol-1-yl)-3-methoxyphenyl)-9-(4-ethoxyphenyl)-6,7,8,9-tetrahydro-5H-[1,2,4]triazolo[1,5-a]azepin-2-amine 2,2,2-trifluoroacetate] |
| < 10 | COc1cc(Nc2nc3n(n2)C[C@H](F)[C@H](F)C[C@H]3c2ccc(F)cc2)ccc1-n1cnc(Cl)c1 (relative stereo) [Example 91, rel-(6S,7R,9S)—N-(4-(4-chloro-1H-imidazol-1-yl)-3-methoxyphenyl)-6,7-difluoro-9-(4-fluorophenyl)-6,7,8,9-tetrahydro-5H-[1,2,4]triazolo[1,5-a]azepin-2-amine 2,2,2-trifluoroacetate] |
| 10 to 100 | C=C1CCn2nc(Nc3ccc(-n4cnc(Cl)c4)c(OC)c3)nc2C(c2ccc(F)cc2)C1 (centres unmarked) [Example 133, N-(4-(4-chloro-1H-imidazol-1-yl)-3-methoxyphenyl)-9-(4-fluorophenyl)-7-methylene-6,7,8,9-tetrahydro-5H-[1,2,4]triazolo[1,5-a]azepin-2-amine 2,2,2-trifluoroacetate] |
| 100 to 1000 | COc1cc(Nc2nc3n(n2)CCCC[C@@H]3c2ccc(OC(F)(F)F)cc2)cc(F)c1-n1cnc(C)n1 (single isomer, unassigned) [Example 169] |
| 10 to 100 | COc1cc(Nc2nc3n(n2)CCC(N2CCC2)CC3c2ccc(F)cc2)ccc1-n1cnc(Cl)c1 (centres unmarked) [Example 142, 7-(azetidin-1-yl)-N-(4-(4-chloro-1H-imidazol-1-yl)-3-methoxyphenyl)-9-(4-fluorophenyl)-6,7,8,9-tetrahydro-5H-[1,2,4]triazolo[1,5-a]azepin-2-amine] |
| 10 to 100 | COc1cc(Nc2nc3n(n2)CCCCC3c2ccc(C#N)cc2)ccc1-n1cnc(Cl)c1 (centres unmarked) [Example 57, 4-(2-(4-(4-chloro-1H-imidazol-1-yl)-3-methoxyphenylamino)-6,7,8,9-tetrahydro-5H-[1,2,4]triazolo[1,5-a]azepin-9-yl)benzonitrile] |
| < 10 | COc1cc(Nc2nc3n(n2)CC[C@@H](O)C[C@@H]3c2ccc(F)cc2)ccc1-n1cnc(Cl)c1 (relative stereo) [Example 66, rel-(7S,9R)-2-(4-(4-chloro-1H-imidazol-1-yl)-3-methoxyphenylamino)-9-(4-fluorophenyl)-6,7,8,9-tetrahydro-5H-[1,2,4]triazolo[1,5-a]azepin-7-ol 2,2,2-trifluoroacetate] |

Same assay, conditions: H4 APP751 SWE clone 8.20 cells, 19 h incubation; read-out: Activity Rating (based on Aβ42 cellular IC50 values)

| IC50 [nM] | Molecule |
| --- | --- |
| < 10 | S)—N-(4-(4-chloro-1H-imidazol-1-yl)-3-methoxyphenyl)-9-(3,4-difluorophenyl)-6,7,8,9-tetrahydro-5H-[1,2,4]triazolo[1,5-a]azepin-2-amine [Example 23] |
| 10 to 100 | (R)—N-(3-fluoro-4-(5-methyl-1H-1,2,4-triazol-1-yl)phenyl)-9-(4-fluorophenyl)-6,7,8,9-tetrahydro-5H-[1,2,4]triazolo azepin-2-amine [Example 95] |
| 10 to 100 | (S)—N-(2-fluoro-5-methoxy-4-(3-methyl-1H-1,2,4-triazol-1-yl)phenyl)-9-(4-(2,2,2-trifluoroethoxy)phenyl)-6,7,8,9-tetrahydro-5H-[1,2,4]triazolo azepin-2-amine [Example 117] |
